Numbered stars: 1 amine (or outer) side, 2 acyl side, 3 side chain; on linkers, the order of the positions; unused ones are H or OH. Square brackets hold non-standard residues; d marks the D form. Peptide text beside a SMILES is read from it. * marks the point of attachment. X2 = COc1ccc2nc(C[C@H](N[*:1])C(=O)[*:2])sc2c1; Abu(4,4,4-F3) = N[C@@H](CC(F)(F)F)C(=O)O; NH(2-morpholinoethyl) = C(CN1CCOCC1)N*; NH(1-CH2NMe2-cBu) = CN(C)CC1(N*)CCC1; Gly(octyl) = CCCCCCCC[C@H](N)C(=O)O; Oxazole4CO(2-Me) = Cc1nc(C(=O)*)co1; X8 = COc1ccc2cc(C(=O)*)c(=O)oc2c1; β3hAib = CC(C)(CC(=O)[*:2])N[*:1]; Benzoyl(4-F) = O=C(c1ccc(F)cc1)*; hCha = N[C@@H](CCC1CCCCC1)C(=O)O; Cha = N[C@@H](CC1CCCCC1)C(=O)O; Nle = CCCC[C@H](N)C(=O)O; Aib = CC(C)(N)C(=O)O; βAla = NCCC(=O)O

The source of these data is patent US20260049101A1, “TOPICAL TREATMENT OF SKIN CANCER USING OLIGOPEPTIDES” (BACOBA AG, priority 2022, published 2026).

The test system of the test is cutaneous squamous cell carcinoma cell line SCC12. Put plainly: In vitro anti-proliferative assay (resazurin) in SCC12. Type of test: cell-based. Conditions: SCC12, 72 hours. The source says:
Methodology. The cutaneous squamous cell carcinoma cell culture SCC12 was cultivated in keratinocyte-SFM media (KSFM, Cat #17005042, Gibco) supplemented with human recombinant epidermal growth factor 1-53 (EGF 1-53) and bovine pituitary extract (BFE).
Vehicle treated wells were set to 100% viability.
For the molecule `COc1ccc2nc(C[C@H](NC(=O)[C@@H]3CCCN3C(=O)c3ccc(F)cc3)C(=O)N[C@@H](CC(C)C)C(=O)NC(C)(C)C(=O)N[C@@H](CC(C)C)C(=O)N[C@@H](CC(C)C)C(=O)NC(C)(C)C(=O)NC(C)(C)C(=O)NCCC(=O)NC3(CN(C)C)CCC3)sc2c1` [Compound 7844, (2S)—N-(1-{[(1S)-1-{[(1S)-1-({1-[(1-{[2-({1-[(dimethylamino)methyl]cyclobutyl}carbamoyl)ethyl]carbamoyl}-1-methylethyl)carbamoyl]-1-methylethyl}carbamoyl)-3-methylbutyl]carbamoyl}-3-methylbutyl]carbamoyl}-1-methylethyl)-2-[(2S)-2-{[(2S)-1-(4-fluorobenzoyl)pyrrolidin-2-yl]formamido}-3-(6-methoxy-1,3-benzothiazol-2-yl)propanamido]-4-methylpentanamide] ({Benzoyl(4-F)}-P[X2]L[Aib]LL[Aib][Aib][βAla]-{NH(1-CH2NMe2-cBu)}), the IC50 (as a rule, the concentration needed to halve the response being measured) worked out at 546 nM.

As for `CC(C)C[C@H](NC(=O)[C@H](CCC1CCCCC1)NC(=O)[C@@H]1CCCN1C(=O)c1ccc(F)cc1)C(=O)NC(C)(C)C(=O)N[C@@H](CC(C)C)C(=O)N[C@@H](CC(C)C)C(=O)NC(C)(C)C(=O)NC(C)(C)C(=O)NCCC(=O)NCCN1CCOCC1` [Compound 8341, (2S)-2-[(2S)-4-cyclohexyl-2-{[(2S)-1-(4-fluorobenzoyl)pyrrolidin-2-yl]formamido}butanamido]-4-methyl-N-(1-methyl-1-{[(1S)-3-methyl-1-{[(1S)-3-methyl-1-{[1-methyl-1-({1-methyl-1-[(2-{[2-(morpholin-4-yl)ethyl]carbamoyl}ethyl)carbamoyl]ethyl}carbamoyl)ethyl]carbamoyl}butyl]carbamoyl}butyl]carbamoyl}ethyl)pentanamide] ({Benzoyl(4-F)}-P[hCha]L[Aib]LL[Aib][Aib][βAla]-{NH(2-morpholinoethyl)}), the IC50 came out at 1020 nM.

`CCCC[C@H](NC(=O)[C@@H]1CCCN1C(=O)c1coc(C)n1)C(=O)N[C@@H](CC(C)C)C(=O)NC(C)(C)C(=O)N[C@@H](CC(C)C)C(=O)N[C@@H](CC(C)C)C(=O)NC(C)(C)C(=O)NC(C)(C)C(=O)NCCC(=O)NC1(CN(C)C)CCC1` [Compound 6781, (2S)—N-[(1S)-1-[(1-{[(1S)-1-{[(1S)-1-({1-[(1-{[2-({1-[(dimethylamino)methyl]cyclobutyl}carbamoyl)ethyl]carbamoyl}-1-methylethyl)carbamoyl]-1-methylethyl}carbamoyl)-3-methylbutyl]carbamoyl}-3-methylbutyl]carbamoyl}-1-methylethyl)carbamoyl]-3-methylbutyl]-2-{[(2S)-1-(2-methyl-1,3-oxazole-4-carbonyl)pyrrolidin-2-yl]formamido}hexanamide] ({Oxazole4CO(2-Me)}-P[Nle]L[Aib]LL[Aib][Aib][βAla]-{NH(1-CH2NMe2-cBu)}): the IC50 was 6850 nM.

`CC(C)C[C@H](NC(=O)[C@H](CCC1CCCCC1)NC(=O)[C@@H]1CCCN1C(=O)c1ccc(F)cc1)C(=O)NC(C)(C)C(=O)N[C@@H](CC(C)C)C(=O)N[C@@H](CC(C)C)C(=O)NC(C)(C)C(=O)NC(C)(C)CC(=O)NCCC(=O)NC1(CN(C)C)CCC1` [Compound 21365, (2S)-2-[(2S)-4-cyclohexyl-2-{[(2S)-1-(4-fluorobenzoyl)pyrrolidin-2-yl]formamido}butan-amido]-N-(1-{[(1S)-1-{[(1S)-1-({1-[(1-{[2-({1-[(dimethylamino)methyl]cyclobutyl}carbamoyl)ethyl]carbamoyl}-2-methylpropan-2-yl)carbamoyl]-1-methylethyl}carbamoyl)-3-methylbutyl]carbamoyl}-3-methylbutyl]carbamoyl}-1-methylethyl)-4-methylpentanamide] ({Benzoyl(4-F)}-P[hCha]L[Aib]LL[Aib][β3hAib][βAla]-{NH(1-CH2NMe2-cBu)}) displayed an IC50 of 511 nM. This IC50 lies about 13-fold lower than the previous one.

Molecule `CN(C)CC1(NC(=O)CCNC(=O)C(C)(C)NC(=O)C(C)(C)NC(=O)[C@H](CC(F)(F)F)NC(=O)[C@H](CC(F)(F)F)NC(=O)C(C)(C)NC(=O)[C@H](CC(F)(F)F)NC(=O)[C@H](CCC2CCCCC2)NC(=O)[C@@H]2CCCN2C(=O)c2ccc(F)cc2)CCC1` [Compound 21372, (2S)-4-cyclohexyl-N-[(1S)-1-[(1-{[(1S)-1-{[(1S)-1-({1-[(1-{[2-({1-[(dimethylamino)methyl]cyclobutyl}carbamoyl)ethyl]carbamoyl}-1-methylethyl)carbamoyl]-1-methylethyl}carba-moyl)-3,3,3-trifluoropropyl]carbamoyl}-3,3,3-trifluoropropyl]carbamoyl}-1-methylethyl)carbamoyl]-3,3,3-trifluoropropyl]-2-{[(2S)-1-(4-fluorobenzoyl)pyrrolidin-2-yl]formamido}butanamide] ({Benzoyl(4-F)}-P[hCha][Abu(4,4,4-F3)][Aib][Abu(4,4,4-F3)][Abu(4,4,4-F3)][Aib][Aib][βAla]-{NH(1-CH2NMe2-cBu)}) showed a concentration for half-maximal inhibition (IC50) of 442 nM.

With `COc1ccc2cc(C(=O)N3CCC[C@H]3C(=O)N[C@@H](CCC3CCCCC3)C(=O)N[C@@H](CC(C)C)C(=O)NC(C)(C)C(=O)N[C@@H](CC(C)C)C(=O)N[C@@H](CC(C)C)C(=O)NC(C)(C)C(=O)NC(C)(C)C(=O)NCCC(=O)NC3(CN(C)C)CCC3)c(=O)oc2c1` [Compound 21287, (2S)-2-[(2S)-4-cyclohexyl-2-{[(2S)-1-(7-methoxy-2-oxo-2H-chromene-3-carbonyl)pyrrolidin-2-yl]formamido}butanamido]-N-(1-{[(1S)-1-{[(1S)-1-({1-[(1-{[2-({1-[(dimethylamino)methyl]cyclobutyl}carbamoyl)ethyl]carbamoyl}-1-methylethyl)carbamoyl]-1-methylethyl}carbamoyl)-3-methylbutyl]carbamoyl}-3-methylbutyl]carbamoyl}-1-methylethyl)-4-methylpentanamide] (X8-P[hCha]L[Aib]LL[Aib][Aib][βAla]-{NH(1-CH2NMe2-cBu)}), the IC50 turned out to be 595 nM. The IC50 values of the last two molecules are within 1.5-fold of each other.

Take `CC(C)C[C@H](NC(=O)CC(C)(C)NC(=O)[C@H](CC(C)C)NC(=O)[C@H](CCC1CCCCC1)NC(=O)[C@@H]1CCCN1C(=O)c1ccc(F)cc1)C(=O)N[C@@H](CC(C)C)C(=O)NC(C)(C)CC(=O)NC(C)(C)CC(=O)NCCC(=O)NC1(CN(C)C)CCC1` [Compound 21368, (2S)-2-[(2S)-4-cyclohexyl-2-{[(2S)-1-(4-fluorobenzoyl)pyrrolidin-2-yl]formamido}butan-amido]-N-(1-{[(1S)-1-{[(1S)-1-({1-[(1-{[2-({1-[(dimethylamino)methyl]cyclobutyl}carba-moyl)ethyl]carbamoyl}-2-methylpropan-2-yl)carbamoyl]-2-methylpropan-2-yl}carbamoyl)-3-methylbutyl]carbamoyl}-3-methylbutyl]carbamoyl}-2-methylpropan-2-yl)-4-methylpentanamide]: the concentration for half-maximal inhibition (IC50) is more than 10000 nM.

`Cc1nc(C(=O)N2CCC[C@H]2C(=O)N[C@@H](CC2CCCCC2)C(=O)N[C@@H](CC(C)C)C(=O)NC(C)(C)C(=O)N[C@@H](CC(C)C)C(=O)N[C@@H](CC(C)C)C(=O)NC(C)(C)C(=O)NC(C)(C)C(=O)NCCC(=O)NC2(CN(C)C)CCC2)co1` [Compound 7059, (2S)-2-[(2S)-3-cyclohexyl-2-{[(2S)-1-(2-methyl-1,3-oxazole-4-carbonyl)pyrrolidin-2-yl]formamido}propanamido]-N-(1-{[(1S)-1-{[(1S)-1-({1-[(1-{[2-({1-[(dimethylamino)methyl]cyclobutyl}carbamoyl)ethyl]carbamoyl}-1-methylethyl)carbamoyl]-1-methylethyl}carbamoyl)-3-methylbutyl]carbamoyl}-3-methylbutyl]carbamoyl}-1-methylethyl)-4-methylpentanamide] ({Oxazole4CO(2-Me)}-P[Cha]L[Aib]LL[Aib][Aib][βAla]-{NH(1-CH2NMe2-cBu)}) returned an IC50 of 500 nM.

With `CCCCCCCC[C@H](NC(=O)[C@@H]1CCCN1C(=O)c1coc(C)n1)C(=O)N[C@@H](CC(C)C)C(=O)NC(C)(C)C(=O)N[C@@H](CC(C)C)C(=O)N[C@@H](CC(C)C)C(=O)NC(C)(C)C(=O)NC(C)(C)C(=O)NCCC(=O)NC1(CN(C)C)CCC1` [Compound 6253, (2S)—N-[(1S)-1-[(1-{[(1S)-1-{[(1S)-1-({1-[(1-{[2-({1-[(dimethylamino)methyl]cyclobutyl}carbamoyl)ethyl]carbamoyl}-1-methylethyl)carbamoyl]-1-methylethyl}carbamoyl)-3-methylbutyl]carbamoyl}-3-methylbutyl]carbamoyl}-1-methylethyl)carbamoyl]-3-methylbutyl]-2-{[(2S)-1-(2-methyl-1,3-oxazole-4-carbonyl)pyrrolidin-2-yl]formamido}decanamide] ({Oxazole4CO(2-Me)}-P[Gly(octyl)]L[Aib]LL[Aib][Aib][βAla]-{NH(1-CH2NMe2-cBu)}), the IC50 is 140 nM.

Molecule `CC(C)C[C@H](NC(=O)[C@H](CCC1CCCCC1)NC(=O)[C@@H]1CCCN1C(=O)c1ccc(F)cc1)C(=O)NCC(C)(C)C(=O)N[C@@H](CC(C)C)C(=O)N[C@@H](CC(C)C)C(=O)NCC(C)(C)C(=O)NCC(C)(C)C(=O)NCCC(=O)NC1(CN(C)C)CCC1` [Compound 21189, (2S)-2-[(2S)-4-cyclohexyl-2-{[(2S)-1-(4-fluorobenzoyl)pyrrolidin-2-yl]formamido}butan-amido]-N-(2-{[(1S)-1-{[(1S)-1-({2-[(2-{[2-({1-[(dimethylamino)methyl]cyclobutyl}carbamoyl)ethyl]carbamoyl}-2,2-dimethylethyl)carbamoyl]-2,2-dimethylethyl}carbamoyl)-3-methylbutyl]carbamoyl}-3-methylbutyl]carbamoyl}-2,2-dimethylethyl)-4-methylpentanamide] displayed an IC50 of more than 10000 nM.
